{
  "source": "paper PMC7377474",
  "about": "“Preclinical characterization of CPL302-253, a selective inhibitor of PI3Kδ, as the candidate for the inhalatory treatment and prevention of Asthma” (PLoS ONE, 2020)",
  "key": {"[1]": {"test_system": "human primary cell cultures and co-cultures", "type": "cell-based", "procedure": "BioMap Profiling study was performed by DiscovereX according to service provider’s protocol. In brief cultures or co-cultures of human primary cells were treated with sets of stimulators specific for cell subsets. […] The expression of biomarkers specific for each system was measured by ELISA and other techniques. The results are shown as log-transformed ratio of the biomarker readouts for the drug-treated sample to vehicle controls. The grey area parallel to the x-axis indicates the 95% significance region calculated based on historical vehicle controls. […]"}, "[2]": {"procedure": "Unless otherwise stated, all chemicals and materials were ordered from Merck Life Science. Each biological replicate was prepared in triplicates. […] The negative control contained buffer instead of NADPH solution. Samples were collected at 0, 10, 20 and 40 min or 0 and 40 min for the negative and double negative controls. The reaction was stopped by protein precipitation in 2 volumes of ice cold MeOH with 200 nM imipramine (as an internal standard for LC-MS analysis). Then, the extract was mixed (1 min, 1000 rpm), filtered through 0.22 μm filter on 96-well plate vacuum manifold and subjected to LC-MS analysis. Metabolic stability in mouse and human cryopreserved hepatocytes was performed in suspension on 96-well tissue culture plates at 1 μM concentration in Williams medium E with CM4000 supplements (ThermoFisher Scientific). Cells were thawed according to the manufacturers manual, counted and preincubated for 30 min in a CO2 incubator (5% CO2, 37 °C, 5 · 10^4 cells/well). For the negative control cells were thermally inactivated for 5 min at 95 °C. Similarly to microsomal stability, experiments were done in technical triplicates, with the additional time point at 80’. Samples for LC-MS analysis were prepared as described for microsomes. Intrinsic clearance (Clint) was calculated using the rate of compound disappearance from the reaction. The elimination rate constant (k) was calculated as a module of slope of the linear regression from ln [substrate] vs time. Then, clearance was calculated as Clint = k/d, where d is protein or cell density for microsomal and hepatocyte stability, respectively.\nThe mobile phases were (A) 10 mM ammonium acetate pH 5.4 in water and (B) methanol. Samples were eluted using a timed, linear gradient from 30% B at 0 min to 90% B at 1.5 min then a hold 90% B to 2.5 min, after it back to initial 30% B to 2.6 min. The columns was equilibrated for up to 5 min. The flow rate was 0.5 mL/min. The injection volume was 3 μL."}, "[3]": {"molecular_target": "T1, PIK3CA(H1047L) (Homo sapiens, UniProt P42336, H1047L)", "T1 construct": "purchased Discoverex (KINOMEscan service)", "T1 sequence (P42336 whole entry H1047L)": "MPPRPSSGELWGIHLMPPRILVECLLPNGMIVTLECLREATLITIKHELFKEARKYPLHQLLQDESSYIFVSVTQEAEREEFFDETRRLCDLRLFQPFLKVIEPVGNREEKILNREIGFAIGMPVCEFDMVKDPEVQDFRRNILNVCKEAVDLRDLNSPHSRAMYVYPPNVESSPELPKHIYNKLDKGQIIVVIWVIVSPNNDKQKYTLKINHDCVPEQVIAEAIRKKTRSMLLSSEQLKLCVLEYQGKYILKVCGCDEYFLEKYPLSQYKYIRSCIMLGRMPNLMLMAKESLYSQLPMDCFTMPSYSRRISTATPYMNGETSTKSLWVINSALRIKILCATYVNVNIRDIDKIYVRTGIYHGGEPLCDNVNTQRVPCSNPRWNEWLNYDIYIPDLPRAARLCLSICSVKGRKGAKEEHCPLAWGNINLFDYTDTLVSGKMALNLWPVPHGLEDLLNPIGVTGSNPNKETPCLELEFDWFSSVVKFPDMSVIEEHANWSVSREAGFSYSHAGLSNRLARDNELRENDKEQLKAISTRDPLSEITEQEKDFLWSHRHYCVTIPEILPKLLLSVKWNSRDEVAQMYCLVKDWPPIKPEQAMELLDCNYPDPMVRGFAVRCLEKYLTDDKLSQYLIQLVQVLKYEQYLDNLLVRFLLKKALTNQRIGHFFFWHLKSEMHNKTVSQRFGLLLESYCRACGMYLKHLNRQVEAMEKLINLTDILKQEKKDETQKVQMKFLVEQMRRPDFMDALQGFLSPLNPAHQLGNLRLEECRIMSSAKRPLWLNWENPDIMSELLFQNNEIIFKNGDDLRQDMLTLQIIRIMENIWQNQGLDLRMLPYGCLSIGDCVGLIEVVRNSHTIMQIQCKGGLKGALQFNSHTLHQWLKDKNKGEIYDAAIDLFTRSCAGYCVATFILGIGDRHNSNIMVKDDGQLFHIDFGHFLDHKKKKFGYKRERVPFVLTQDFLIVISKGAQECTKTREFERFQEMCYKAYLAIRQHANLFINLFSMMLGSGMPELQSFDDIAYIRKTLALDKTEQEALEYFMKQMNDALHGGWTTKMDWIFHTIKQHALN", "experiment": "KINOMEScan single concentration", "type": "binding", "conditions": "1 μM", "procedure": "(§1) The inhibitor-kinase binding affinity was assessed in KINOMEscan™ assay (Discoverex) according to service provider’s protocol. In brief, in this binding assay the studied compound in solution is incubated with DNA-tagged kinase and kinase active-site directed ligand bound to the beads. The compound competes for binding to kinase with the immobilized ligand. After incubation beads are removed from the solution and kinase bound to ligand is quantified by qPCR. The strength of compound binding is determined based on its ability to block kinase-ligand binding. 11-point 3-fold serial dilution of CPL302-253 was used in order to determine its binding constants (Kd) against different isotypes of class I PI3K. The single concentration of CPL302-253 was used in order to determine its specificity in abroad panel of 468 human kinases. The measure of compounds affinity to each kinase in the panel was the percentage of kinase activity inhibition by tested ligand in comparison to the control."}, "[4]": {"molecular_target": "T2, PIK3CA(C420R) (Homo sapiens, UniProt P42336, C420R)", "T2 construct": "purchased Discoverex (KINOMEscan service)", "T2 sequence (P42336 whole entry C420R)": "as the sequence (P42336 whole entry H1047L) above, with C420R, L1047H counted along it", "experiment": "KINOMEScan single concentration", "type": "binding", "conditions": "1 μM", "procedure": "as §1"}, "[5]": {"molecular_target": "T3, PIK3CA(E545A) (Homo sapiens, UniProt P42336, E545A)", "T3 construct": "purchased Discoverex (KINOMEscan service)", "T3 sequence (P42336 whole entry E545A)": "as the sequence (P42336 whole entry H1047L) above, with E545A, L1047H counted along it", "experiment": "KINOMEScan single concentration", "type": "binding", "conditions": "1 μM", "procedure": "as §1"}, "[6]": {"molecular_target": "T4, PIK3CA (Homo sapiens, UniProt P42336)", "T4 construct": "purchased Discoverex (KINOMEscan service)", "experiment": "KINOMEScan single concentration", "type": "binding", "conditions": "1 μM", "procedure": "as §1"}, "[7]": {"molecular_target": "T5, PIK3CA(E545K) (Homo sapiens, UniProt P42336, E545K)", "T5 construct": "purchased Discoverex (KINOMEscan service)", "T5 sequence (P42336 whole entry E545K)": "as the sequence (P42336 whole entry H1047L) above, with E545K, L1047H counted along it", "experiment": "KINOMEScan single concentration", "type": "binding", "conditions": "1 μM", "procedure": "as §1"}, "[8]": {"molecular_target": "T6, PIK3CA(Q546K) (Homo sapiens, UniProt P42336, Q546K)", "T6 construct": "purchased Discoverex (KINOMEscan service)", "T6 sequence (P42336 whole entry Q546K)": "as the sequence (P42336 whole entry H1047L) above, with Q546K, L1047H counted along it", "experiment": "KINOMEScan single concentration", "type": "binding", "conditions": "1 μM", "procedure": "as §1"}, "[9]": {"molecular_target": "T7, ABL1-nonphosphorylated (Homo sapiens, UniProt P00519)", "T7 construct": "purchased Discoverex (KINOMEscan service)", "experiment": "KINOMEScan single concentration", "type": "binding", "conditions": "1 μM", "procedure": "as §1"}, "[10]": {"molecular_target": "T8, PIK3CA(E542K) (Homo sapiens, UniProt P42336, E542K)", "T8 construct": "purchased Discoverex (KINOMEscan service)", "T8 sequence (P42336 whole entry E542K)": "as the sequence (P42336 whole entry H1047L) above, with E542K, L1047H counted along it", "experiment": "KINOMEScan single concentration", "type": "binding", "conditions": "1 μM", "procedure": "as §1"}, "[11]": {"molecular_target": "T9, PIK3CD (Homo sapiens, UniProt O00329)", "T9 construct": "purchased Discoverex (KINOMEscan service)", "experiment": "KINOMEScan single concentration", "type": "binding", "conditions": "1 μM", "procedure": "as §1"}, "[12]": {"molecular_target": "T10, PIK3CA(I800L) (Homo sapiens, UniProt P42336, I800L)", "T10 construct": "purchased Discoverex (KINOMEscan service)", "T10 sequence (P42336 whole entry I800L)": "as the sequence (P42336 whole entry H1047L) above, with I800L, L1047H counted along it", "experiment": "KINOMEScan single concentration", "type": "binding", "conditions": "1 μM", "procedure": "as §1"}, "[13]": {"molecular_target": "T11, ULK2 (Homo sapiens, UniProt Q8IYT8)", "T11 construct": "purchased Discoverex (KINOMEscan service)", "T11 sequence (Q8IYT8 whole entry)": "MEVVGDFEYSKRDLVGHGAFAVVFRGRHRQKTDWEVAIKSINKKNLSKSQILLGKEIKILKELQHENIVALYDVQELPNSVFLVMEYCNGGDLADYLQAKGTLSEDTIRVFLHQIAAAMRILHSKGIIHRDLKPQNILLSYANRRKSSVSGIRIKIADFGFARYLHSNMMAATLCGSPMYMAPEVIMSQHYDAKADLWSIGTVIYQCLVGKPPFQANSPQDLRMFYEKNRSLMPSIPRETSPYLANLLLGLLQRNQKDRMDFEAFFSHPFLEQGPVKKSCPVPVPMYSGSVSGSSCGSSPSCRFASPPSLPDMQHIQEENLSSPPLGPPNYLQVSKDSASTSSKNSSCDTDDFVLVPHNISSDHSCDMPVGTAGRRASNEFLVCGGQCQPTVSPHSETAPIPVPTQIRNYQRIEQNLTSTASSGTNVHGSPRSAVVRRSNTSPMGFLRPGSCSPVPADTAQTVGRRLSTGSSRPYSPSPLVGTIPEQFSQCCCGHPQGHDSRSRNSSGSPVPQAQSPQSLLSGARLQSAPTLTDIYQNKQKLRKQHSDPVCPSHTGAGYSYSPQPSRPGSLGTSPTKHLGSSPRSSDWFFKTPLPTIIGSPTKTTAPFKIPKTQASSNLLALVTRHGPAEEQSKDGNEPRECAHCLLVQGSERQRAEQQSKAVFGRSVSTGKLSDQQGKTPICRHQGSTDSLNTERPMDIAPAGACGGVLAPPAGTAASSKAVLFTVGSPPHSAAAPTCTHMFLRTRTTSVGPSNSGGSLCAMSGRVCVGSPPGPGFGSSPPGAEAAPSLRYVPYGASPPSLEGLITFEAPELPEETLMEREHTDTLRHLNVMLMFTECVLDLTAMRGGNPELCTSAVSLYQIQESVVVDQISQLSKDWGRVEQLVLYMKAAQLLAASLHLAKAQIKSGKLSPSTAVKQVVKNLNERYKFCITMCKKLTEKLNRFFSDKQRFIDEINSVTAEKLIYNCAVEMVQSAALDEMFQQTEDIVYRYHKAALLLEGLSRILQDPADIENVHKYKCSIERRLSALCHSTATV", "experiment": "KINOMEScan single concentration", "type": "binding", "conditions": "1 μM", "procedure": "as §1"}, "[14]": {"molecular_target": "T12, PIK3CG (Homo sapiens, UniProt P48736)", "T12 construct": "purchased Discoverex (KINOMEscan service)", "T12 sequence (P48736 whole entry)": "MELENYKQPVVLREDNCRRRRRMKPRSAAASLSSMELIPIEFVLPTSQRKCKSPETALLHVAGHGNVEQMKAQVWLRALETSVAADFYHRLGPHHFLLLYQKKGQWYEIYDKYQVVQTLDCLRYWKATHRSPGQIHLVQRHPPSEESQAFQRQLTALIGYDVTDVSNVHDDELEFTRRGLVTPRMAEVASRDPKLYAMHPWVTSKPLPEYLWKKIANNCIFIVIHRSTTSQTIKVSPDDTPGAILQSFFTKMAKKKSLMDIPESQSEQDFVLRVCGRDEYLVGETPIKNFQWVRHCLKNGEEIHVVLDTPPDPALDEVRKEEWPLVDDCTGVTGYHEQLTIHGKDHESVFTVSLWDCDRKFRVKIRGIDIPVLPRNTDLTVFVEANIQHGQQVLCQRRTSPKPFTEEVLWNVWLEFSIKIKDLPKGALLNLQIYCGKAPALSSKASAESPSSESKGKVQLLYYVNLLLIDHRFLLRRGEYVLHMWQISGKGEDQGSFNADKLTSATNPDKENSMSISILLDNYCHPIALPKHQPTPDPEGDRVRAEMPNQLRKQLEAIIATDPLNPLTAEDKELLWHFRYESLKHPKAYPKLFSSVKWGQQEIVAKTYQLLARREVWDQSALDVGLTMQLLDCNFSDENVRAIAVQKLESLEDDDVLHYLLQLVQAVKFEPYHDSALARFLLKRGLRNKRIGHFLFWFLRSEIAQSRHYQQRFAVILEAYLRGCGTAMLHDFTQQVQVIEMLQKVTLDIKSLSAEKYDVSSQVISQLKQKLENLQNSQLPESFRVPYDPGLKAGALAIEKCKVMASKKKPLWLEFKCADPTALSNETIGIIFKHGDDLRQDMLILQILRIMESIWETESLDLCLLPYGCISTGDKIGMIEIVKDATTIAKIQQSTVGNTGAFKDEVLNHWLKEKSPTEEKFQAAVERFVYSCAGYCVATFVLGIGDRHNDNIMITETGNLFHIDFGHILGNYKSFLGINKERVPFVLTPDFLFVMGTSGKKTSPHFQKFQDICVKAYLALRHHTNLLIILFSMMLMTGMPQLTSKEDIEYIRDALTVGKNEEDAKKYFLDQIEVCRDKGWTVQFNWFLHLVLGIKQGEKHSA", "experiment": "KINOMEScan single concentration", "type": "binding", "conditions": "1 μM", "procedure": "as §1"}, "[15]": {"molecular_target": "T13, PIK3CB (Homo sapiens, UniProt P42338)", "T13 construct": "purchased Discoverex (KINOMEscan service)", "T13 sequence (P42338 whole entry)": "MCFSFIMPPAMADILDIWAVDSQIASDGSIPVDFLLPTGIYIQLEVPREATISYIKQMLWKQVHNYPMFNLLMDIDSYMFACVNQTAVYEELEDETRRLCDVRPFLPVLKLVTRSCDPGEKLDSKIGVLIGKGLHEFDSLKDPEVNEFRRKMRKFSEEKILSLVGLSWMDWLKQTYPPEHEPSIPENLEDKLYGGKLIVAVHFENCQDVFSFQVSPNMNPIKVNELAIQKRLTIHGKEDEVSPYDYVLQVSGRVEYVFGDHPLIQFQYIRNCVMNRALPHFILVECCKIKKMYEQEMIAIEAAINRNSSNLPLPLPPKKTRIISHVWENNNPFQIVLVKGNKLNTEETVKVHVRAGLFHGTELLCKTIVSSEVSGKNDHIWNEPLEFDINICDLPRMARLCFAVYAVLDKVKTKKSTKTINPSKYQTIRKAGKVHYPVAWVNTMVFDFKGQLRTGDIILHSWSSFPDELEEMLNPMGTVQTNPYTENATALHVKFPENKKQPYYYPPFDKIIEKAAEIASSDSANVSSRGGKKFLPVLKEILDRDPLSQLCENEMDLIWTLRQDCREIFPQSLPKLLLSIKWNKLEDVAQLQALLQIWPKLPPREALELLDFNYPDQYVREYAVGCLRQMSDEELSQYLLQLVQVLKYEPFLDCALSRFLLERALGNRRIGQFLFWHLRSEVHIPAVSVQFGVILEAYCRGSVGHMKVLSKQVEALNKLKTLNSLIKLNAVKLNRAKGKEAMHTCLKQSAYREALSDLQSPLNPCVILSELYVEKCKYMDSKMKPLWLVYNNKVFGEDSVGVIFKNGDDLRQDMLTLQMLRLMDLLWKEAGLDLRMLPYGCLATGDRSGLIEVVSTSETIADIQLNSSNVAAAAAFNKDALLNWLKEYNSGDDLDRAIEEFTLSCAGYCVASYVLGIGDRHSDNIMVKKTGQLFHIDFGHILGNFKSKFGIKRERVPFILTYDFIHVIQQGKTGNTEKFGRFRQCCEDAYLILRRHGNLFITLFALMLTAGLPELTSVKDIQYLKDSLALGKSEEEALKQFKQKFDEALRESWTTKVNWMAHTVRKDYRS", "experiment": "KINOMEScan single concentration", "type": "binding", "conditions": "1 μM", "procedure": "as §1"}},
  "note": "Where two headings read alike, the source gives them in different places.",
  "data": [
    {"smiles": "CC(C)(C)N1CCN(Cc2cc3nc(-c4cncc5[nH]ccc45)cc(N4CCOCC4)n3n2)CC1", "note": "[CPL302-253]", "values": [
      {"measurement": "cytotoxic effects in BioMap culture systems", "setting": "[1]", "value": "no cytotoxic effects observed"},
      {"measurement": "impact on other studied BioMAP systems", "setting": "[1]; systems other than BT, except PAI-1 in KF3CT", "value": "no impact"},
      {"measurement": "degradation in human hepatocytes", "setting": "[2]", "value": "degradation was not observed at all"},
      {"measurement": "Clint, times lower when compared to verapamil", "setting": "[2]; CD-1, mouse, 1 μM", "value": "~30", "unit": "times"},
      {"measurement": "Clint (Fig 5D), single replicates", "setting": "[2]; human, 1 μM", "value": 0},
      {"measurement": "Clint, times lower when compared to verapamil", "setting": "[2]; human, 1 μM", "value": "~70", "unit": "times"},
      {"measurement": "degradation, fold slower as compared to verapamil", "setting": "[2]; mouse, 1 μM", "value": 11, "unit": "fold"},
      {"measurement": "Remaining binding (%)", "setting": "[3]", "value": 92, "unit": "%"},
      {"measurement": "Remaining binding (%)", "setting": "[4]", "value": 12, "unit": "%"},
      {"measurement": "Remaining binding (%)", "setting": "[5]", "value": 45, "unit": "%"},
      {"measurement": "Remaining binding (%)", "setting": "[6]", "value": 96, "unit": "%"},
      {"measurement": "Remaining binding (%)", "setting": "[7]", "value": 54, "unit": "%"},
      {"measurement": "Remaining binding (%)", "setting": "[8]", "value": 99, "unit": "%"},
      {"measurement": "Remaining binding (%)", "setting": "[9]", "value": 36, "unit": "%"},
      {"measurement": "Remaining binding (%)", "setting": "[10]", "value": 82, "unit": "%"},
      {"measurement": "Remaining binding (%)", "setting": "[11]", "value": 1.1, "unit": "%"},
      {"measurement": "Remaining binding (%)", "setting": "[12]", "value": 44, "unit": "%"},
      {"measurement": "Remaining binding (%)", "setting": "[13]", "value": 33, "unit": "%"},
      {"measurement": "Remaining binding (%)", "setting": "[14]", "value": 94, "unit": "%"},
      {"measurement": "Remaining binding (%)", "setting": "[15]", "value": 42, "unit": "%"}
    ]}
  ]
}
